Data: the NIST ThermoML archive (doi:10.1016/j.jct.2014.09.020)

Tests used:
[1] = Liquid; for speed of sound: Frequency=4 MHz, Single path-length method; for mass density: Vibrating tube method
[2] = xn = mol fraction of the nth substance listed; conditions: Liquid, x1 = 1; for speed of sound: Frequency=4 MHz, Single path-length method; for mass density: Vibrating tube method

c1ccc2c(c1)CCCC2 [1,2,3,4-tetrahydronaphthalene]
[1]
Conditions	mass density, 100 kPa [kg/m3]	speed of sound, 100 kPa [m/s]	speed of sound, 5000 kPa [m/s]	speed of sound, 10000 kPa [m/s]	speed of sound, 15000 kPa [m/s]	speed of sound, 20000 kPa [m/s]	speed of sound, 25000 kPa [m/s]
313.15 K	952.93	1413	1434	1455	1475	1495	1513
323.15 K	944.99	1374	1397	1419	1439	1459	1480
333.15 K	937.04	1335	1359	1383	1402	1425	1445

CCCCCCCCCC [decane]
[1]
Conditions	mass density, 100 kPa [kg/m3]	speed of sound, 100 kPa [m/s]	speed of sound, 5000 kPa [m/s]	speed of sound, 10000 kPa [m/s]	speed of sound, 15000 kPa [m/s]	speed of sound, 20000 kPa [m/s]	speed of sound, 25000 kPa [m/s]
313.15 K	714.87	1177	1209	1243	1274	1303	1327
323.15 K	707.2	1139	1174	1207	1238	1269	1296
333.15 K	699.47	1099	1134	1171	1204	1234	1264

CCCCCCCCCC [decane] + c1ccc2c(c1)CCCC2
[2]
Conditions	mass density, 100 kPa [kg/m3]	speed of sound, 100 kPa [m/s]	speed of sound, 5000 kPa [m/s]	speed of sound, 10000 kPa [m/s]	speed of sound, 15000 kPa [m/s]	speed of sound, 20000 kPa [m/s]	speed of sound, 25000 kPa [m/s]
313.15 K	714.87	1177	1209	1243	1274	1303	1327
323.15 K	707.2	1139	1174	1207	1238	1269	1296
333.15 K	699.47	1099	1134	1171	1204	1234	1264

CCCCCCCCCCCCCCCC [hexadecane]
[1]
Conditions	mass density, 100 kPa [kg/m3]	speed of sound, 100 kPa [m/s]	speed of sound, 5000 kPa [m/s]	speed of sound, 10000 kPa [m/s]	speed of sound, 15000 kPa [m/s]	speed of sound, 20000 kPa [m/s]	speed of sound, 25000 kPa [m/s]
313.15 K	759.55	1283	1311	1340	1366	1391	1416
323.15 K	752.64	1248	1278	1307	1335	1361	1387
333.15 K	745.73	1212	1242	1273	1301	1328	1354

CCCCCCCCCCCCCCCC [hexadecane] + c1ccc2c(c1)CCCC2
[2]
Conditions	mass density, 100 kPa [kg/m3]	speed of sound, 100 kPa [m/s]	speed of sound, 5000 kPa [m/s]	speed of sound, 10000 kPa [m/s]	speed of sound, 15000 kPa [m/s]	speed of sound, 20000 kPa [m/s]	speed of sound, 25000 kPa [m/s]
313.15 K	759.55	1283	1311	1340	1366	1391	1416
323.15 K	752.64	1248	1278	1307	1335	1361	1387
333.15 K	745.73	1212	1242	1273	1301	1328	1354
